The results in this text go back to ChEMBL document CHEMBL1134864, “Synthesis and biological evaluation of 9-substituted tetracycline derivatives” (2002).

For orientation: MIC means the lowest concentration found to suppress growth. A lower MIC goes with a more susceptible organism.

Holding throughout (format): functional
For one assay, the system named is Enterococcus faecalis. The assay is described as follows: Minimum inhibition concentration against Enterococcus faecalis.
In assay [1] the test system is Staphylococcus aureus. The assay is described as follows: Minimum inhibition concentration against Methicillin resistant Staphylococcus aureus.
In assay [2] the test system is Staphylococcus aureus. The assay is described as follows: Minimum inhibition concentration against Staphylococcus aureus.

Values after ≈ are worked out from the molar mass of the structure shown. Where only a bound is given, the exact number is not on record here.

Take `C[C@H]1c2ccc(-c3ccc([N+](=O)[O-])cc3)c(O)c2C(=O)C2=C(O)[C@]3(O)C(O)=C(C(N)=O)C(=O)[C@@H](N(C)C)C3[C@@H](O)C21` (stereo partly specified): the MIC in the assay on Enterococcus faecalis stood at 0.78 µg/mL (≈ 1.38 µM); against Staphylococcus aureus [1], 0.39 µg/mL (≈ 0.69 µM); against Staphylococcus aureus [2], 3.12 µg/mL (≈ 5.52 µM).

Regarding `C=Cc1ccc2c(c1O)C(=O)C1=C(O)[C@]3(O)C(O)=C(C(N)=O)C(=O)[C@@H](N(C)C)C3[C@@H](O)C1[C@H]2C` (stereo partly specified), the MIC with Enterococcus faecalis was less than 0.098 µg/mL; against Staphylococcus aureus [1] it was less than 0.098 µg/mL; in the assay on Staphylococcus aureus [2], 1.56 µg/mL (≈ 3.32 µM).

On to `C[C@H]1c2ccc(-c3ccc(N)cc3)c(O)c2C(=O)C2=C(O)[C@]3(O)C(O)=C(C(N)=O)C(=O)[C@@H](N(C)C)C3[C@@H](O)C21` (stereo partly specified), for which the MIC was 3.12 µg/mL (≈ 5.83 µM) in the assay on Enterococcus faecalis, 1.56 µg/mL (≈ 2.91 µM) in the assay with Staphylococcus aureus [1] and 3.12 µg/mL (≈ 5.83 µM) against Staphylococcus aureus [2].

In the case of `C#Cc1ccc2c(c1O)C(=O)C1=C(O)[C@]3(O)C(O)=C(C(N)=O)C(=O)[C@@H](N(C)C)C3[C@@H](O)C1[C@H]2C` (stereo partly specified), the minimal inhibitory concentration (MIC) with Enterococcus faecalis was 0.78 µg/mL (≈ 1.67 µM); in the assay with Staphylococcus aureus [1], 0.39 µg/mL (≈ 0.833 µM); with Staphylococcus aureus [2] it was 1.56 µg/mL (≈ 3.33 µM).

Consider `C[C@H]1c2ccc(-c3ccccc3)c(O)c2C(=O)C2=C(O)[C@]3(O)C(O)=C(C(N)=O)C(=O)[C@@H](N(C)C)C3[C@@H](O)C21` (stereo partly specified), for which the values for the MIC in the assay on Enterococcus faecalis, against Staphylococcus aureus [1] and in the assay on Staphylococcus aureus [2] were 1.56 µg/mL (≈ 3 µM), 0.78 µg/mL (≈ 1.5 µM) and 3.12 µg/mL (≈ 5.99 µM), respectively.

Consider `C[C@H]1c2cccc(O)c2C(=O)C2=C(O)[C@]3(O)C(=O)C(C(N)=O)=C(O)[C@@H](N(C)C)[C@@H]3[C@@H](O)[C@@H]21.O` [DOXYCYCLINE], for which the MIC with Enterococcus faecalis is 6.25 µg/mL; against Staphylococcus aureus [1], 6.25 µg/mL; with Staphylococcus aureus [2] it was greater than 50 µg/mL.

As for `CN(C)c1ccc(O)c2c1C[C@H]1C[C@H]3[C@H](N(C)C)C(O)=C(C(N)=O)C(=O)[C@@]3(O)C(O)=C1C2=O` [MINOCYCLINE], the MIC against Enterococcus faecalis is less than 0.098 µg/mL; against Staphylococcus aureus [1] it was 6.25 µg/mL (≈ 13.7 µM); with Staphylococcus aureus [2], 3.12 µg/mL (≈ 6.82 µM).
